The values below come from patent US20030223978A1, “Conjugates of an AMF ligand and a cytotoxic molecule for use in cancer therapy” (priority 1998, published 2003).

Experiment [1] deals with B16-F10 metastatic murine melanoma cell line. Nature of the experiment: Cell toxicity of AMF-doxorubicin conjugate. The format is cell-based. The following applies: approximately 0.3, 3, or 30 μg/ml; 3 (Expt. 1) or 4 days (Expt. 2); increasing concentrations. The procedure: Rabbit PHI is internalized by murine NIH-3T3 fibroblasts (Benlimame et al., 1998, Molec. Biol. Cell 9: 1773-1786) and the ability of the AMF-doxorubicin conjugate to kill metastatic tumor cells was tested with the B16-F10 metastatic murine melanoma cell line. B16-F10 cells were plated at a density of 4,000 cells/cm2 and after 24 hours in culture AMF-doxorubicin conjugate was added at a concentration of approximately 0.3, 3, or 30 μg/ml (FIG. 8). After 3 (Expt. 1) or 4 days (Expt. 2) the cultures were fixed and cells remaining attached to the substrate counted. The number of cells remaining attached to the substrate is presented relative to control cells to which no AMF-doxorubicin was added.

The test system of experiment [2] is NIH-3T3 cells. As to the kind of experiment: bAMF internalization, immunofluorescence and confocal microscopy. The experiment is classed as cell-based, mouse. The procedure: For the AMF internalization studies, NIH-3T3 cells were pulsed with biotinylated AMF (˜250-500 μg/ml) and chased at 37° C. for the indicated periods of time prior to fixation by the addition of precooled (−80° C.) methanol/acetone directly to the cells. […] Disruption of clathrin coated pits and vesicles by cytoplasmic acidification was performed essentially as previously described (Heuser, J. (1989) J. Cell Biol. 108, 401-411). NIH-3T3 cells were pretreated with acidification medium (DMEM containing 5% calf serum and 50 mM MES pH 5.5) for 15 minutes at 37° C. prior to addition of bAMF in acidification medium for one hour at 37° C. To ensure that cellular acidification blocked clathrin-mediated endocytosis, Texas Red transferrin (50 μg/ml) was added to cells in regular or acidification medium for 30 minutes at 37° C. after which the cells were fixed with 3% paraformaldehyde.
After labeling the coverslips were mounted in Airvol (Air Products and Chemicals Inc., Allentown, Pa.) and viewed in a Zeiss Axioskop fluorescent microscope equipped with a 63× Plan Apochromat objective and selective filters. Confocal microscopy was performed with the 60× Nikon Plan Apochromat objective of a dual channel BioRad 600 laser scanning confocal microscope equipped with a krypton/argon laser and the corresponding dichroic reflectors to distinguish fluorescein and Texas Red labeling. Confocal images were printed using a Polaroid TX 1500 video printer.

Experiment [3] deals with NIH-3T3 cells. Nature of the experiment: bAMF internalization pathway by post-embedding electron microscopy. The format is cell-based, mouse. The method, then:
Post-embedding immunolabeling for AMF-R was performed as previously described (Benlimame, N. et al. (1995) J. Cell Biol. 129, 459-471). Cells grown on petri dishes were rinsed and incubated at 37° C. in Ringer's solution for 15 minutes before fixing in Ringer's solution containing 2% paraformaldehyde and 0.2% glutaraldehyde for 30 minutes at 37° C. The fixed cells were rinsed in PBS/CM, scraped from the petri dish and collected by centrifugation. The cell pellet was post-fixed for 30 minutes with 1% osmium tetroxide in PBS/CM containing 1.5% potassium ferrocyanide (reduced osmium), dehydrated and embedded in LR-White resin. […] The numerical density of gold particles associated with plasma membrane, caveolae, clathrin coated pits and vesicles, smooth tubules and vesicles, and rough ER was determined. The length of the limiting membrane of the indicated organelles was measured using a Sigma-Scan measurement system and the gold particles associated with these organelles counted. […] Control labeling with non-immune rat IgM antibodies was analyzed similarly.
To follow the endocytic pathway of AMF by electron microscopy, biotinylated AMF was internalized as described for the fluorescence studies and detected by postembedding labeling with streptavidin conjugated to 10 nm gold as described above.

The target in a further experiment is T1, AMF-R (Mus musculus, UniProt Q9R049).
T1 construct: Confocal imaging of cell surface labeling of viable NIH-3T3 cells at 4° C. with bAMF; endogenous in cells; host or cells: NIH-3T3 fibroblasts (ATCC, a highly spread clone)
T1 sequence (Q9R049 whole entry): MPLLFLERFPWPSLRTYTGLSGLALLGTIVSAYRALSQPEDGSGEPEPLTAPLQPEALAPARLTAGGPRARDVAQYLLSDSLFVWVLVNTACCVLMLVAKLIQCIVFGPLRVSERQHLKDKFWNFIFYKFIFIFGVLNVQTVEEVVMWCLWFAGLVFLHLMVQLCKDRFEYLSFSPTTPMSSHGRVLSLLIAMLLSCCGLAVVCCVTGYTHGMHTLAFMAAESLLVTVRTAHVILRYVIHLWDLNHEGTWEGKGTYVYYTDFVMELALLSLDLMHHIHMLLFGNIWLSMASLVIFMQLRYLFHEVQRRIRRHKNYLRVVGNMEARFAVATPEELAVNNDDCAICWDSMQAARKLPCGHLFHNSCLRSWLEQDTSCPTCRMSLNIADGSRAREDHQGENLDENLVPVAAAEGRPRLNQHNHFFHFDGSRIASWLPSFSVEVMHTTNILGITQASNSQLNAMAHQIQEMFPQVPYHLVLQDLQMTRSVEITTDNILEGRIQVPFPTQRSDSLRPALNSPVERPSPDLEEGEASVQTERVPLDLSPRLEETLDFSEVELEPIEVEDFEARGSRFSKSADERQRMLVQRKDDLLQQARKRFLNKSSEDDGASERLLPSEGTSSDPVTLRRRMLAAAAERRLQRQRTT
Nature of the experiment: Cell surface labeling of viable cells at 4° C. with bAMF and anti-AMF-R. The experiment is classed as binding. The following applies: viable NIH-3T3 cells, confocal. The procedure:
Cells were plated on glass cover slips 2 days prior to each experiment at a concentration of 30,000 cells/35 mm dish. For AMF-R surface labeling, the cells were incubated in DMEM minus bicarbonate supplemented with 25 mM Hepes pH 7.2 and 2.5% serum for 15 min at 4° C. prior to labeling with anti-AMF-R primary antibody or biotinylated AMF at 4° C. for 30 min. The cells were washed at 4° C. and then fixed with 3% paraformaldehyde in phosphate buffered saline (pH 7.4) supplemented with 0.1 mM Ca++ and 1 mM Mg++ (PBS/CM) for 15 min at room temperature. For caveolin labeling, after AMF-R surface labeling at 4° C. and fixation as above, the cells were permeabilized with 0.2% Triton X-100 for 10 min, then extensively washed with PBS/CM containing 1% BSA. The cells were incubated with rabbit anti-caveolin polyclonal antibodies, washed, and then incubated with FITC goat anti-rat IgM to reveal anti-AMF-R and Texas Red donkey anti-rabbit IgG to reveal anti-caveolin.

Take “AMF-doxorubicin: commercially available PHI (AMF) conjugated to the cellular toxin doxorubicin by glutaraldehyde mediated crosslinking”: in experiment [1], the “number of cells remaining attached to the substrate relative to control cells” value was “progressive toxicity”.

Regarding “bAMF: Rabbit phosphohexose isomerase (AMF) biotinylated with NHS-LC-biotin”, the “localization of internalized bAMF” value with NIH-3T3 cells [2] (1 hour at 37° C., 10-fold excess unlabeled AMF) is given as “localized only to punctate structures”; in the experiment with NIH-3T3 cells [2] (1 hour at 37° C., medium acidified to pH 5.5 (clathrin-mediated endocytosis disrupted)), “localized to tubules which colocalize with AMF-R tubules”; in the experiment with NIH-3T3 cells [2] (1 hour pulse at 37° C., regular medium), “localized to tubular structures which colocalize with AMF-R tubules”; in the experiment on NIH-3T3 cells [2] (two hour pulse, chase of 2 or 4 hours) it was “accumulation of bAMF labeling in tubular structures which colocalized with AMF-R tubules”. In addition, the “localization of bAMF by streptavidin-10 nm gold” value was “localized to cell surface caveolae” in the experiment on NIH-3T3 cells [3] (10 minute pulse at 37° C.); “localized to caveolae and smooth vesicles” with NIH-3T3 cells [3] (30 minute pulse at 37° C.). In addition, in the experiment with AMF-R, the “colocalization of cell surface bAMF with anti-AMF-R labeling” value is given as “high degree of colocalization”.
